Experiments:
[1] = Thermal analysis (DSC), onset glass transition temperature; format: physicochemical; settings: for Tg (glass transition temperature) of neat amorphous material: DSC
Protocol: A Q2000 differential scanning calorimeter (DSC; Q2000, TA Instruments, New Castle, DE) connected to an RCS 90 refrigerated cooling system (TA Instruments, New Castle, DE) was used to analyze the lumefantrine salts and salt ASDs. The thermal properties of lumefantrine free base, lumefantrine free base ASDs, and neat PVPVA were also analyzed. The purging gas used was dry nitrogen (50 mL/min flow rate). Temperature calibration of the DSC was performed using indium and tin, while indium was used for enthalpy calibration. Each sample (5–10 mg) was carefully weighed and sealed in a Tzero aluminum sample pan (TA Instruments, New Castle, DE). The procedure to obtain the sample Tg is as follows: equilibration at −10 °C, followed by heating with a modulation of ±0.636 °C every 40 s at 3 °C/min to the temperature of interest. The samples were then cooled to −10 °C at 10 °C/min and reheated at 5 °C/min. The first heating cycle was used to remove thermal history associated with the samples, while the second cycle was used to obtain the sample Tg.

[2] = Water sorption analysis of amorphous lumefantrine salts (DVS); format: physicochemical; settings: neat amorphous salt; for weight gain (water sorption): 95% RH
Protocol: Water sorption profiles of the amorphous lumefantrine salts were measured using a DVS Adventure water vapor sorption analyzer (Surface Measurement Systems, Wembley, UK). Powdered salt (5–10 mg) was dried at 0% RH in the instrument for 120 min. After drying, the RH within the chamber was increased from 5% to 95% at a 5% step interval. The equilibrium criterion was a percent weight change over time (% dm/dt) of <0.002%/min for 10 min. Nitrogen was used as the purging gas.

[3] = Physical stability, open dish 40 °C/75% RH, monitored by PXRD; format: physicochemical; settings: neat amorphous salt
Protocol: PXRD patterns of the lumefantrine salts and salt ASDs were collected using an X-ray diffractometer (Rigaku SmartLab, Rigaku Americas, The Woodlands, TX) operating at 40 kV and […] in Bragg–Brentano mode with a Cu-kα radiation source and D/tex ultra detector. Each sample was spread thinly on a glass sample holder. Data was collected from 4 to 40° 2θ using a step size of 0.02° and a scan rate of 4°/min.
To assess the physical stability of the salts and salt ASDs, the samples were stored in open dish accelerated stability conditions of 40 °C/ 75% RH. At pre-determined time intervals, the samples were removed and their PXRD patterns collected.

[4] = set-up: method as in PMID 23763957; settings: cited from earlier work
[5] = set-up: method as in PMID 24189249; settings: cited from earlier work
[6] = set-up: method as in PMID 10468018; settings: amorphous salt; cited from earlier work
[7] = set-up: method as in PMID 32134677; settings: PVPVA ASD; cited from earlier work

For `CCCCN(CCCC)CC(O)c1cc(Cl)cc2c1-c1ccc(Cl)cc1/C2=C/c1ccc(Cl)cc1.CCCCN(CCCC)CC(O)c1cc(Cl)cc2c1-c1ccc(Cl)cc1/C2=C/c1ccc(Cl)cc1.O=S(=O)(O)O` (centres unmarked) [sulfate salt, Lumefantrine sulfate], the “Tg (glass transition temperature) of neat amorphous material” value (from here on “Tg (glass transition temperature)”) [1] was 101 °C, the “weight gain (water sorption)” value [2] was 3.3% and the “time re-crystallization was resisted” value [3] was “at least 16 weeks”.
In the case of `CCCCN(CCCC)CC(O)c1cc(Cl)cc2c1-c1ccc(Cl)cc1/C2=C/c1ccc(Cl)cc1` (centres unmarked) [lumefantrine, reference compound], the “Tg (glass transition temperature)” value [1] is given as 19.7 °C, the “Tg (glass transition temperature)” value ([1]; listed as free base) is given as 20 °C and the “pKa of tertiary amine” value [4] is given as 8.73. The “log P” value [5] was 8.34.
In the case of `CCCCN(CCCC)CC(O)c1cc(Cl)cc2c1-c1ccc(Cl)cc1/C2=C/c1ccc(Cl)cc1.O=C(O)c1ccccc1` (centres unmarked) [benzoate salt, Lumefantrine benzoate], the “elevation in Tg relative to the free base” value ([1]; neat amorphous salt) is reported as roughly 10 °C, the “weight gain (water sorption)” value [2] is reported as less than 2% and the “storage time at which crystalline peaks were observed” value (“storage time” below) [3] is reported as no more than 4 weeks.
With “Lumefantrine PEG 250 diacid [PEG 250 diacid (2:1) salt]” the “storage time” value [3] was no more than 4 weeks.
In the case of `CC1(C)[C@@H]2CC[C@@]1(CS(=O)(=O)O)C(=O)C2.CCCCN(CCCC)CC(O)c1cc(Cl)cc2c1-c1ccc(Cl)cc1/C2=C/c1ccc(Cl)cc1` (centres unmarked) [camsylate salt, Lumefantrine camsylate], the “weight gain (water sorption)” value [2] is reported as less than 2% and the “storage time” value [3] is reported as 32 weeks.
For `CCCCN(CCCC)CC(O)c1cc(Cl)cc2c1-c1ccc(Cl)cc1C2=Cc1ccc(Cl)cc1.O=S(=O)(O)c1ccccc1` (centres unmarked) [besylate salt, Lumefantrine besylate], the “weight gain (water sorption)” value [2] was less than 2% and the “storage time” value [3] was no more than 4 weeks.
For `COc1ccc2c(c1)c(CC(=O)[O-])c(C)n2C(=O)c1ccc(Cl)cc1.[Na+]` [Na indomethacin], the “Tg higher than indomethacin free acid” value [6] is given as roughly 75 °C.
In the case of `CCCCN(CCCC)CC(O)c1cc(Cl)cc2c1-c1ccc(Cl)cc1C2=Cc1ccc(Cl)cc1.Cc1ccc(S(=O)(=O)O)cc1` (centres unmarked) [tosylate salt, Lumefantrine tosylate], the “weight gain (water sorption)” value [2] is reported as less than 2%.
With “Lumefantrine PEG 250 diacid [PEG 250 diacid (1:1) salt]” the “appearance after exposure to 95% RH” value [2] was “liquified”, the “increase in weight (water sorption)” value ([2]; 90% RH) was 5.1% and the “weight gain (water sorption)” value [2] was 6.6%.
In the case of `COc1ccc2c(c1)c(CC(=O)O)c(C)n2C(=O)c1ccc(Cl)cc1` [indomethacin], the “limit of congruency (LoC)” value [7] is given as 10%.
For `CCCCN(CCCC)CC(O)c1cc(Cl)cc2c1-c1ccc(Cl)cc1C2=Cc1ccc(Cl)cc1.Cl` (centres unmarked) [HCl salt, Lumefantrine HCl], the “weight gain (water sorption)” value [2] was less than 2% and the “time re-crystallization was resisted” value [3] was “at least 16 weeks”.
